Drawing on ChEMBL document CHEMBL1145289, “Propidium-based polyamine ligands as potent inhibitors of acetylcholinesterase and acetylcholinesterase-induced amyloid-beta aggregation” (J Med Chem, 2005), this text covers IC50 and Ki for three molecules.

Molecules are shown by their SMILES.

The target of one experiment is Cholinesterase (Homo sapiens, UniProt P06276).
The target in experiment [1] is T1, Acetylcholinesterase (Homo sapiens, UniProt P22303).
Description: Competitive inhibition constant for Acetylcholinesterase
The target in experiment [2] is T1, Acetylcholinesterase. The source holds these as a separate data set.
Description: Inhibition of Acetylcholinesterase

T1 sequence (P22303 whole entry): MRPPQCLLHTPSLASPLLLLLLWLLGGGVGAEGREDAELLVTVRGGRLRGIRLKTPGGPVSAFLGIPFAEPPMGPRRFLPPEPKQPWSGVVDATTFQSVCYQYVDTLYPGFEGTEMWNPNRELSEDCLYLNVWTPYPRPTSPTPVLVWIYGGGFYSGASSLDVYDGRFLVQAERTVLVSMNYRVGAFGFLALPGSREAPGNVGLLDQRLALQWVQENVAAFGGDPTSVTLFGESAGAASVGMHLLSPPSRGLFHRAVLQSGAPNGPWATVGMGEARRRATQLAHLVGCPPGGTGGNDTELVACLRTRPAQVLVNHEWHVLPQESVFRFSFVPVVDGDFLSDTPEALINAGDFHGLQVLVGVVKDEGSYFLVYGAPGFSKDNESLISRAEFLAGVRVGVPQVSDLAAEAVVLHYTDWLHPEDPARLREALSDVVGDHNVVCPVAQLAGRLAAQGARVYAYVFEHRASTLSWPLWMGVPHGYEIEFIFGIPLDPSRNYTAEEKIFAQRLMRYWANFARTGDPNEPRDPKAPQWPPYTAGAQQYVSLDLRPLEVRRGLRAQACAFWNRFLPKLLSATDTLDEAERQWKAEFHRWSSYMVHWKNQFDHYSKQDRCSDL
Chain of Cholinesterase (P06276 whole entry): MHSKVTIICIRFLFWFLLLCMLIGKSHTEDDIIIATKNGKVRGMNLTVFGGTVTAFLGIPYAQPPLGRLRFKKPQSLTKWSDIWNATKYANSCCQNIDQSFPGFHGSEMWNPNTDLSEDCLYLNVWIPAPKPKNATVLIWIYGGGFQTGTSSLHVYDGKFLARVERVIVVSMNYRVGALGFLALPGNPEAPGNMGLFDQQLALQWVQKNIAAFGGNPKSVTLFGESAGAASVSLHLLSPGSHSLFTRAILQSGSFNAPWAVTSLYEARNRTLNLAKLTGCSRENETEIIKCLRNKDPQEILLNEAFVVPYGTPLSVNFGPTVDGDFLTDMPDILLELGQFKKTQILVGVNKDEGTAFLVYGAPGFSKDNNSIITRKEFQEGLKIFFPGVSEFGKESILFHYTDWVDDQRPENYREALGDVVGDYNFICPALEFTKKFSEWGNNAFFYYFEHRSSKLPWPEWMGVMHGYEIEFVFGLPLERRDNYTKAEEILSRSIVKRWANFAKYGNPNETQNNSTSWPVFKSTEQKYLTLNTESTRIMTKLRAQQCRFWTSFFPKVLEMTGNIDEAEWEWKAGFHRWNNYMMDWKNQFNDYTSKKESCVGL

On to `Nc1ccc2c(c1)c(-c1ccccc1)[n+](CCCNCCCNCCCNc1c3c(nc4ccccc14)CCCC3)c1cc(N)ccc21`, for which the IC50 – broadly, the concentration at which inhibition is half-maximal – at Cholinesterase was found to be 63.7 nM; on Acetylcholinesterase [2] it was 1.55 nM. Moreover, the Ki (commonly a dissociation constant, usually derived from enzyme kinetics or from competition with a known ligand) at Acetylcholinesterase [1] was 1.49 nM.

Regarding `COc1ccccc1CN(C)CCCN(C)CCCNCCC[n+]1c(-c2ccccc2)c2cc(N)ccc2c2ccc(N)cc21`, the IC50 against Cholinesterase is 2190 nM; against Acetylcholinesterase [2] it was 952 nM. Also, affinity at Acetylcholinesterase [1] was put at a Ki of 894 nM.

Take `COc1ccccc1CN(C)CCCCCC(=O)N(C)CCCCCCCCN(C)C(=O)CCCCCN(C)Cc1ccccc1OC` [CAPROCTAMINE]: the IC50 against Cholinesterase is 11600 nM.
